Assay results as given in patent US20210010053A1, “ASSAYS FOR IMPROVING AUTOMATED ANTIMICROBIAL SUSCEPTIBILITY TESTING ACCURACY” (SELUX DIAGNOSTICS, INC., priority 2019, published 2021).

Key:
beta lactamase = assay: beta-lactamase inhibitor assay with nitrocefin probe; format: cell-based; settings: 4μg/mL inhibitor, 0.25 mg/mL nitrocefin, 35° C., 4 hours, absorbance 490 nm, FIG. 1
Protocol: Example 1. Microbes were prepared by diluting colonies into saline to reach a McFarland value of 0.5, which was verified using a spectrophotometer. This was diluted 1:20 into saline and 50 μI of inoculum was added to wells of a 384-well plate. For each strain, 25 μI of solutions containing either 0.25 mg/mL nitrocefin alone (Nitro), 0.25 mg/mL nitrocefin and 4μg/mL clauvulanate (Nitro Clay), or 0.25 mg/mL nitrocefin and 4μg/mL tazobactam (Nitro Tazo) were added to duplicate wells. Inoculated plates were incubated at 35° C., shaking at 150 rpm for 4 hours. Absorbance was read at 490 nm and values shown in FIG. 1 are the absorbance in the indicated condition minus the absorbance from microbial inoculum alone without nitrocefin. A greater value indicates microbial ability to degrade nitrocefin, and thus, the presence of a beta lactamase. A reduction in absorbance value in the presence of an inhibitor indicates the beta lactamase present is sensitive to the inhibitor. […] Further, the inhibitors are both active against each of the strains with known beta lactamases.

M morganii (NDM) = settings: 0.01 mM EDTA added to Solution 4, vacuum dried, 3 hours of incubation
Description: (§1) Example 9. […] Multiple different bacterial strains listed in Table 7 were inoculated into each of 3 wells.

M morganii (KPC) = settings: 0.01 mM EDTA added to Solution 4, vacuum dried, 3 hours of incubation
Description: as §1

K pneumoniae (NDM) = settings: 0.01 mM EDTA added to Solution 4, vacuum dried, 3 hours of incubation
Description: as §1

E cloacae (NDM) = settings: 0.01 mM EDTA added to Solution 4, vacuum dried, 3 hours of incubation
Description: as §1

E coli 25922 = settings: E coli 25922, no carbapenemase; 0.01 mM EDTA added to Solution 4, vacuum dried; 3 hours of incubation
Description: as §1

K pneumoniae (KPC) = settings: 0.01 mM EDTA added to Solution 4, vacuum dried, 3 hours of incubation
Description: as §1

E cloacae (IMP) = settings: 0.01 mM EDTA added to Solution 4, vacuum dried, 3 hours of incubation
Description: as §1

Row | Compound | activity of inhibitor against strains with known beta lactamases (reduction in nitrocefin absorbance) (beta lactamase) | Carba Test with EDTA (M morganii (NDM)) | Carba Test with EDTA (M morganii (KPC)) | Carba Test with EDTA (K pneumoniae (NDM)) | Carba Test with EDTA (E cloacae (NDM)) | Carba Test with EDTA (E coli 25922) | Carba Test with EDTA (K pneumoniae (KPC)) | Carba Test with EDTA (E cloacae (IMP))
1 | C[C@]1(Cn2ccnn2)[C@H](C(=O)O)N2C(=O)C[C@H]2S1(=O)=O [tazobactam] | active | – | – | – | – | – | – | –
2 | O=C(O)[C@H]1/C(=C/CO)O[C@@H]2CC(=O)N21 [clauvulanate] | active | – | – | – | – | – | – | –
3 | O=C(O)CN(CCN(CC(=O)O)CC(=O)O)CC(=O)O [EDTA, Ethylenediaminetetraacetic acid] | – | −1923.5 | 1288.5 | −2222.5 | −2084.5 | −1541.5 | 3705.5 | −1816.5
